According to patent US6943017B2, “Method of producing antihypercholesterolemic agents” (Wisconsin Alumni Research Foundation, priority 1998, dated 2005):

Legend:
Type in all cases: cell-based
fungi = test: Antifungal activity (general statement); conditions: noted by Applicants, no test described
Description: Applicants envision that the present invention is also useful for providing antifungal compounds and organisms engineered to express antifungal compounds. Preferably, one would measure the antifungal properties of a compound in the manner of N. Lomovskaya, et al., Microbiology 143:875-883, 1997. Measurement of inhibition of yeast growth can be found in R. Ikeura, et al., J. Antibiotics 41:1148, 1988. The same general methods could be used for all fungi. Both of these references are hereby incorporated by reference.

[1] = tested on: A. nidulans strains WMH1739 and WMH1740 (WMH1738 transformed with pWHM1263); test: Lovastatin resistance test: spore suspension streaked on solid AMM plates containing lovastatin
Experimental: (§1) This strain WMH1738 was transformed to hygromycin B resistance with pWHM1263. Transformant colonies were screened for lovastatin resistance and for the production of new metabolites as described below and two strains WMH1739 and WMH1740 were chosen for further analysis. […] This was analyzed by streaking 10 μl of a spore suspension on solid AMM plates containing lovastatin at 0, 0.1, 0.5, 1, 5, 10, 50 and 100 μg/ml and incubating at 37° C. Strains WMH1739 and WMH1740 were compared to strains WMH1741 and WMH1742 which were derivatives of WMH1738 transformed to hygromycin resistance with AN26. […] The two lovastatin resistant strains were fermented in lovastatin-producing conditions using fermentation method B and extracts were analyzed for lovastatin related metabolites as described below. […] One compound that was common to both comigrated with monacolin J on TLC and HPLC analysis by the methods described below. Semi-preparative HPLC was used to partially purify some of this compound, which was then analyzed by HPLC—MS. It had the same mass and fragmentation pattern as authentic monacolin J. The other compound, found in only one of the strains, comigrated with monacolin L on TLC and HPLC.

[2] = tested on: A. nidulans strains WMH1741 and WMH1742 (WMH1738 transformed with AN26); test: as above; conditions: 37° C.
Experimental: as §1

| SMILES | antifungal activity (fungi) | inhibition of growth ([1]; strains WMH1739 and WMH1740, lovastatin at 0, 0.1, 0.5, 1, 5, 10, 50 and 100 μg/ml on solid AMM plates, 37° C.) | lovastatin concentration to which strains were significantly resistant ([1]; strains WMH1739 and WMH1740 compared with the host strain, solid media) | inhibition of growth ([2]; lovastatin 5 μg/ml on solid AMM plates) | inhibition of growth ([2]; lovastatin 50 μg/ml on solid AMM plates) |
| --- | --- | --- | --- | --- | --- |
| C[C@H]1C=C2C=C[C@H](C)[C@H](CC[C@@H]3C[C@@H](O)CC(=O)O3)[C@H]2[C@@H](O)C1 [monocolin J, monacolin J] | varying degrees of antifungal activity | – | – | – | – |
| C[C@@H]1CC[C@@H]2[C@@H](CC[C@@H]3C[C@@H](O)CC(=O)O3)[C@@H](C)C=C[C@H]2C1 [dihydromonocolin L, dihydromonacolin L] | varying degrees of antifungal activity | – | – | – | – |
| CC[C@H](C)C(=O)O[C@H]1C[C@@H](C)C=C2C=C[C@H](C)[C@H](CC[C@@H]3C[C@@H](O)CC(=O)O3)[C@H]21 [lovastatin] | varying degrees of antifungal activity | no inhibition of growth | up to 100 μg/ml | slight inhibition | almost complete growth inhibition |
| C[C@H]1C=C2C=C[C@H](C)[C@H](CC[C@@H]3C[C@@H](O)CC(=O)O3)[C@H]2CC1 [monocolin L, monacolin L] | varying degrees of antifungal activity | – | – | – | – |
